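Growth conditions: 96-well plates. Treatment: test compound, 48 hours, 5 concentrations. Analysis: linear interpolation between bracketing concentrations; unreached endpoints set to highest concentration. TGI: concentration producing complete growth inhibition.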
Columns and labels:
Experiment in all cases: inhibition of tumour cell growth, NCI panel, 48 h
786-0 renal = test system: 786-0 renal
A549 NSCLC = test system: A549 NSCLC
ACHN renal = test system: ACHN renal
CCRF-CEM leukemia = test system: CCRF-CEM leukemia
COLO 205 colon = test system: COLO 205 colon
DLD-1 colon = test system: DLD-1 colon
DMS 273 small cell lung = test system: DMS 273 small cell lung
EKVX NSCLC = test system: EKVX NSCLC
HCC-2998 colon = test system: HCC-2998 colon
HCT-116 colon = test system: HCT-116 colon
HCT-15 colon = test system: HCT-15 colon
HL-60(TB) leukemia = test system: HL-60(TB) leukemia
HOP-62 NSCLC = test system: HOP-62 NSCLC
HOP-92 NSCLC = test system: HOP-92 NSCLC
HT29 colon = test system: HT29 colon
IGROV1 ovarian = test system: IGROV1 ovarian
K-562 leukemia = test system: K-562 leukemia
KM12 colon = test system: KM12 colon
KM20L2 colon = test system: KM20L2 colon
LOX IMVI melanoma = test system: LOX IMVI melanoma
LXFL 529 NSCLC = test system: LXFL 529 NSCLC
M14 melanoma = test system: M14 melanoma
M19-MEL melanoma = test system: M19-MEL melanoma
MALME-3M melanoma = test system: MALME-3M melanoma
MOLT-4 leukemia = test system: MOLT-4 leukemia
NCI-H226 lung = test system: NCI-H226 lung
NCI-H23 lung = test system: NCI-H23 lung
NCI-H460 lung = test system: NCI-H460 lung
NCI-H522 lung = test system: NCI-H522 lung
OVCAR-3 ovarian = test system: OVCAR-3 ovarian
OVCAR-4 ovarian = test system: OVCAR-4 ovarian
OVCAR-8 ovarian = test system: OVCAR-8 ovarian
RXF 393 renal = test system: RXF 393 renal
SF-268 CNS = test system: SF-268 CNS
SF-295 CNS = test system: SF-295 CNS
SF-539 CNS = test system: SF-539 CNS
SK-MEL-2 melanoma = test system: SK-MEL-2 melanoma
SK-MEL-28 melanoma = test system: SK-MEL-28 melanoma
SK-MEL-5 melanoma = test system: SK-MEL-5 melanoma
SK-OV-3 ovarian = test system: SK-OV-3 ovarian
SN12C renal = test system: SN12C renal
SNB-19 CNS = test system: SNB-19 CNS
SNB-75 CNS = test system: SNB-75 CNS
SNB-78 CNS = test system: SNB-78 CNS
SR leukemia = test system: SR leukemia
SW-620 colon = test system: SW-620 colon
TK-10 renal = test system: TK-10 renal
U251 CNS = test system: U251 CNS
UACC-257 melanoma = test system: UACC-257 melanoma
UACC-62 melanoma = test system: UACC-62 melanoma
UO-31 renal = test system: UO-31 renal
XF 498 CNS = test system: XF 498 CNS

## Cc1nc2c(n1C(C)(C)C)C(=O)c1ccccc1C2=O
786-0 renal
  TGI: > 100 µM
A549 NSCLC
  TGI: > 100 µM
ACHN renal
  TGI: > 100 µM
CCRF-CEM leukemia
  TGI: > 100 µM
COLO 205 colon
  TGI: > 100 µM
DLD-1 colon
  TGI: > 100 µM
DMS 273 small cell lung
  TGI: > 100 µM
EKVX NSCLC
  TGI: > 100 µM
HCC-2998 colon
  TGI: > 100 µM
HCT-116 colon
  TGI: > 100 µM
HCT-15 colon
  TGI: > 100 µM
HL-60(TB) leukemia
  TGI: > 100 µM
HOP-62 NSCLC
  TGI: > 100 µM
HOP-92 NSCLC
  TGI: 66.4 µM
HT29 colon
  TGI: > 100 µM
IGROV1 ovarian
  TGI: > 100 µM
K-562 leukemia
  TGI: > 100 µM
KM12 colon
  TGI: > 100 µM
KM20L2 colon
  TGI: > 100 µM
LOX IMVI melanoma
  TGI: > 100 µM
LXFL 529 NSCLC
  TGI: > 100 µM
M14 melanoma
  TGI: > 100 µM
M19-MEL melanoma
  TGI: 76.5 µM
MALME-3M melanoma
  TGI: > 100 µM
MOLT-4 leukemia
  TGI: > 100 µM
NCI-H226 lung
  TGI: > 100 µM
NCI-H23 lung
  TGI: > 100 µM
NCI-H460 lung
  TGI: > 100 µM
NCI-H522 lung
  TGI: > 100 µM
OVCAR-3 ovarian
  TGI: > 100 µM
OVCAR-4 ovarian
  TGI: > 100 µM
OVCAR-8 ovarian
  TGI: > 100 µM
RXF 393 renal
  TGI: > 100 µM
SF-268 CNS
  TGI: > 100 µM
SF-295 CNS
  TGI: > 100 µM
SF-539 CNS
  TGI: > 100 µM
SK-MEL-2 melanoma
  TGI: > 100 µM
SK-MEL-28 melanoma
  TGI: > 100 µM
SK-MEL-5 melanoma
  TGI: > 100 µM
SK-OV-3 ovarian
  TGI: > 100 µM
SN12C renal
  TGI: > 100 µM
SNB-19 CNS
  TGI: > 100 µM
SNB-75 CNS
  TGI: > 100 µM
SNB-78 CNS
  TGI: > 100 µM
SR leukemia
  TGI: > 100 µM
SW-620 colon
  TGI: > 100 µM
TK-10 renal
  TGI: > 100 µM
U251 CNS
  TGI: > 100 µM
UACC-257 melanoma
  TGI: > 100 µM
UACC-62 melanoma
  TGI: > 100 µM
UO-31 renal
  TGI: > 100 µM
XF 498 CNS
  TGI: > 100 µM
